The source of these data is US9315490B2, “2,5-substituted pyrimidines” (Grünenthal GmbH, priority 2014, dated 2016).

The target of one test is T1, human PDE4B1 (Homo sapiens, UniProt Q07343).
T1 construct: host or cells: Sf9 cells
T1 sequence (Q07343 whole entry): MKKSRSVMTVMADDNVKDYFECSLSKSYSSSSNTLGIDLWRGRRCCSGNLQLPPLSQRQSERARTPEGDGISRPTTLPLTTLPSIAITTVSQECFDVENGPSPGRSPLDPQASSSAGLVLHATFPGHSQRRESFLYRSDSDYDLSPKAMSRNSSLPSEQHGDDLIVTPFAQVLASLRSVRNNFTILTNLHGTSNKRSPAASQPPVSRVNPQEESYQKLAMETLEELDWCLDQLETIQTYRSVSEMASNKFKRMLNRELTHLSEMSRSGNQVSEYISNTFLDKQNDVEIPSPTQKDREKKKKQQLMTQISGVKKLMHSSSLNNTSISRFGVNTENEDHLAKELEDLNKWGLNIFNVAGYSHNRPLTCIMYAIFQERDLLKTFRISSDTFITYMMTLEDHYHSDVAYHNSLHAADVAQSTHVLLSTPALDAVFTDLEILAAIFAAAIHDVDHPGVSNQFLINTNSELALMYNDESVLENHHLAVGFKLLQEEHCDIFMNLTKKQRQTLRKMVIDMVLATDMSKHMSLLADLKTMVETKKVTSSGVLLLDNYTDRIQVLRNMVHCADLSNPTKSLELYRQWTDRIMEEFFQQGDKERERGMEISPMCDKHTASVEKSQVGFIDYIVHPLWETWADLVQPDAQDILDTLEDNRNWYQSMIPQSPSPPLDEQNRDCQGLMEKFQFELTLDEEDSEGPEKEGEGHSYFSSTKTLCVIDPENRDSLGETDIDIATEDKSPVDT
Description: TR-FRET assay using the LANCE Ultra cAMP kit to determine the activity of hPDE4B1. In kind it is biochemical. As to conditions: test concentration 1 μM, 1 µM. From the text:
TR-FRET Assay Using the LANCE® Ultra cAMP Kit to Determine the Activity of hPDE4B1
The effects of the compounds on the activity of the human PDE4B1 was quantified by measuring the production of 5′AMP from cAMP using a human recombinant enzyme expressed in Sf9 cells and the LANCE® Ultra cAMP kit, a TR-FRET detection method from PerkinElmer. The human PDE4B1 enzyme was purchased from SignalChem Lifesciences (Catalog# P92-31BG, Lot# H296-2).
The test compound, reference compound or water (control) was mixed with the enzyme (0.96 U) in a reaction buffer containing 50 mM Tris-HCl, 50 mM MgCl2 and 5 mM DTT (pH 8.5). Thereafter, the reaction was initiated by addition of 500 nM cAMP (substrate) and the mixture was incubated for 30 minutes at room temperature. For control basal measurements, the enzyme was omitted from the reaction mixture. After 30 minutes, the reaction was stopped and diluted by a factor of 100 with the reaction buffer supplemented with 500 μM IBMX. The fluorescence donor (europium chelate-labeled cAMP) and the fluorescence acceptor (anti-cAMP antibody labeled with the ULight™ dye) were then added together with 500 μM IBMX to a 10 μl aliquot. After 60 minutes, the fluorescence transfer corresponding to the amount of residual cAMP was measured at λex=337 nm, λem=620 nm and λem=665 nm using a microplate reader (PHERAstar, BMG). The enzyme activity was determined by dividing the signal measured at 665 nm by that measured at 620 nm (ratio) multiplied by 10000. The results were expressed as percent inhibition of the control enzyme activity. IC50 values (IC50=concentration causing a half-maximal inhibition of control specific activity) were derived from dose response measurements with ten different concentrations (n=3; N=1-3).
For the molecule `Cc1ccnc(-c2cnc(-n3cc([S+](C)[O-])c4ccc(C(=O)N5CCOCC5)cc43)nc2)c1` (single isomer, unassigned) [Example 352, (1-(5-(4-Methylpyridin-2-yl)pyrimidin-2-yl)-3-(methylsulfinyl)-1H-indol-6-yl)(morpholino)methanone], the “Inhibition in % (inhibition of PDE4B)” value amounted to 95%.

The same test, now with this note: test concentration 1 μM, read-out: Inhibition in % (inhibition of PDE4B).
Take `Cc1ccnc(-c2cnc(-n3cc([S+](C)[O-])c4ccc(C(=O)N5CCOCC5)cc43)nc2)c1` (single isomer, unassigned) [Example 351, (1-(5-(4-Methylpyridin-2-yl)pyrimidin-2-yl)-3-(methylsulfinyl)-1H-indol-6-yl)(morpholino)methanone]: the inhibition – broadly, the percentage by which the read-out fell short of the control – at 1 µM stood at 93%.

As for `CSc1cn(-c2ncc(-c3ccccc3F)cn2)c2cc(C(=O)N3CCOCC3)ccc12` [Example 1d, (1-(5-(2-Fluorophenyl)pyrimidin-2-yl)-3-(methylthio)-1H-indol-6-yl)(morpholino)methanone], the inhibition at 1 µM was found to be 89%.

For `C[S+]([O-])c1cn(-c2ncc(-c3ccccc3F)cn2)c2cc(C(=O)N3CC4CNCC4C3)ccc12` (stereo not shown) [Example 222, (1-(5-(2-Fluorophenyl)pyrimidin-2-yl)-3-(methylsulfinyl)-1H-indol-6-yl)(hexahydropyrrolo[3,4-c]pyrrol-2(1H)-yl)methanone], the inhibition at 1 µM stood at 73%.

As to `Cc1ccnc(-c2cnc(-n3cc([S+](C)[O-])c4ccc(C(=O)N5C[C@@H]6C[C@H]5CN6)cc43)nc2)c1` (stereo partly drawn) [Example 245, (1S,4S)-2,5-Diazabicyclo[2.2.1]heptan-2-yl(1-(5-(4-methylpyridin-2-yl)pyrimidin-2-yl)-3-(methylsulfinyl)-1H-indol-6-yl)methanone], the inhibition at 1 µM amounted to 86%.

Take `CCc1ccnc(-c2cnc(-n3cc([S+](C)[O-])c4ccc(C(=O)N5C[C@@H]6C[C@H]5CN6)cc43)nc2)c1` (stereo partly drawn) [Example 246, (1S,4S)-2,5-Diazabicyclo[2.2.1]heptan-2-yl(1-(5-(4-ethylpyridin-2-yl)pyrimidin-2-yl)-3-(methylsulfinyl)-1H-indol-6-yl)methanone]: the inhibition at 1 µM stood at 96%.

Regarding `Cc1cccc(-c2cnc(-n3cc([S+](C)[O-])c4ccc(C(=O)N5C[C@@H]6C[C@H]5CN6)cc43)nc2)n1` (stereo partly drawn) [Example 247, (1S,4S)-2,5-Diazabicyclo[2.2.1]heptan-2-yl(1-(5-(6-methylpyridin-2-yl)pyrimidin-2-yl)-3-(methylsulfinyl)-1H-indol-6-yl)methanone], the inhibition at 1 µM stood at 90%.

As to `CN(C)c1ccnc(-c2cnc(-n3cc([S+](C)[O-])c4ccc(C(=O)N5C[C@@H]6C[C@H]5CN6)cc43)nc2)c1` (stereo partly drawn) [Example 248, (1S,4S)-2,5-Diazabicyclo[2.2.1]heptan-2-yl(1-(5-(4-(dimethylamino)pyridin-2-yl)pyrimidin-2-yl)-3-(methylsulfinyl)-1H-indol-6-yl)methanone], the inhibition at 1 µM stood at 97%.

Consider `Cc1ccc(F)c(-c2cnc(-n3cc([S+](C)[O-])c4ccc(C(=O)N5C[C@@H]6C[C@H]5CN6)cc43)nc2)c1` (stereo partly drawn) [Example 249, (1S,4S)-2,5-Diazabicyclo[2.2.1]heptan-2-yl(1-(5-(2-fluoro-5-methylphenyl)pyrimidin-2-yl)-3-(methylsulfinyl)-1H-indol-6-yl)methanone], for which the inhibition at 1 µM is 93%.

Turning to `CC(C)c1ccnc(-c2cnc(-n3cc([S+](C)[O-])c4ccc(C(=O)N5CCOCC5)cc43)nc2)c1` (stereo not shown) [Example 256, (1-(5-(4-Isopropylpyridin-2-yl)pyrimidin-2-yl)-3-(methylsulfinyl)-1H-indol-6-yl)(morpholino)methanone], the inhibition at 1 µM was found to be 96%.

With `CC#Cc1ccnc(-c2cnc(-n3cc([S+](C)[O-])c4ccc(C(=O)N5CCOCC5)cc43)nc2)c1` (stereo not shown) [Example 257, (3-(Methylsulfinyl)-1-(5-(4-(prop-1-yn-1-yl)pyridin-2-yl)pyrimidin-2-yl)-1H-indol-6-yl)(morpholino)methanone], the inhibition at 1 µM was found to be 93%.

With `C[S+]([O-])c1cn(-c2ncc(-c3cc(C4CC4)ccn3)cn2)c2cc(C(=O)N3CCOCC3)ccc12` (stereo not shown) [Example 258, (1-(5-(4-Cyclopropylpyridin-2-yl)pyrimidin-2-yl)-3-(methylsulfinyl)-1H-indol-6-yl)(morpholino)methanone], the inhibition at 1 µM was found to be 92%.

On to `CCc1ccnc(-c2cnc(-n3cc([S+](C)[O-])c4ccc(C(=O)N5CCOCC5)cc43)nc2)c1` (stereo not shown) [Example 259], for which the inhibition at 1 µM was 95%.

Regarding `CCOc1ccnc(-c2cnc(-n3cc([S+](C)[O-])c4ccc(C(=O)N5CCOCC5)cc43)nc2)c1` (stereo not shown) [Example 260, (1-(5-(4-Ethoxypyridin-2-yl)pyrimidin-2-yl)-3-(methylsulfinyl)-1H-indol-6-yl)(morpholino)methanone], the inhibition at 1 µM was 95%.

Take `CCOc1ccc(F)c(-c2cnc(-n3cc([S+](C)[O-])c4ccc(C(=O)N5CCOCC5)cc43)nc2)c1` (stereo not shown) [Example 261, (1-(5-(5-Ethoxy-2-fluorophenyl)pyrimidin-2-yl)-3-(methylsulfinyl)-1H-indol-6-yl)(morpholino)methanone]: the inhibition at 1 µM came to 55%.

In the case of `C[S+]([O-])c1cn(-c2ncc(-c3ccc4c(c3)OCO4)cn2)c2cc(C(=O)N3CCOCC3)ccc12` (stereo not shown) [Example 262, (1-(5-(Benzo[d][1,3]dioxol-5-yl)pyrimidin-2-yl)-3-(methylsulfinyl)-1H-indol-6-yl)(morpholino)methanone], the inhibition at 1 µM was 70%.

Turning to `C[S+]([O-])c1cn(-c2ncc(-c3cc(OC(F)(F)F)ccc3F)cn2)c2cc(C(=O)N3CCOCC3)ccc12` (stereo not shown) [Example 263, (1-(5-(2-Fluoro-5-(trifluoromethoxy)phenyl)pyrimidin-2-yl)-3-(methylsulfinyl)-1H-indol-6-yl)(morpholino)methanone], the inhibition at 1 µM is 97%.

In the case of `CC(=O)Oc1ccc(F)c(-c2cnc(-n3cc([S+](C)[O-])c4ccc(C(=O)N5CCOCC5)cc43)nc2)c1` (stereo not shown) [Example 264, 4-Fluoro-3-(2-(3-(methylsulfinyl)-6-(morpholine-4-carbonyl)-1H-indol-1-yl)pyrimidin-5-yl)phenyl acetate], the inhibition at 1 µM was 94%.

On to `Cc1ccc(F)c(-c2cnc(-n3cc([S+](C)[O-])c4ccc(C(=O)N5CCCC5)cc43)nc2)c1` (stereo not shown) [Example 265, (1-(5-(2-Fluoro-5-methylphenyl)pyrimidin-2-yl)-3-(methylsulfinyl)-1H-indol-6-yl)(pyrrolidin-1-yl)methanone], for which the inhibition at 1 µM turned out to be 98%.

In the case of `CCN(C)C(=O)c1ccc2c([S+](C)[O-])cn(-c3ncc(-c4cc(C)ccc4F)cn3)c2c1` (stereo not shown) [Example 266, N-Ethyl-1-(5-(2-fluoro-5-methylphenyl)pyrimidin-2-yl)-N-methyl-3-(methylsulfinyl)-1H-indole-6-carboxamide], the inhibition at 1 µM was found to be 98%.

The same test, now with this note: test concentration 10 μM (marked in cell), 10 µM.
Regarding `CC(O)c1ccc(F)c(-c2cnc(-n3cc(S(C)(=O)=O)c4ccc(C(=O)N5CCOCC5)cc43)nc2)c1` (single isomer, unassigned) [Example 345, (1-(5-(2-Fluoro-5-(1-hydroxyethyl)phenyl)pyrimidin-2-yl)-3-(methylsulfonyl)-1H-indol-6-yl)(morpholino)methanone], the “Inhibition in % (inhibition of PDE4B)” value is on record as 95 (10 μM) %.

The same test, now with this note: test concentration 10 μM (marked in cell), read-out: Inhibition in % (inhibition of PDE4B).
With `CN(CC(N)=O)C(=O)c1ccc2c([S+](C)[O-])cn(-c3ncc(-c4cc(C5CC5)ccn4)cn3)c2c1` (single isomer, unassigned) [Example 333, N-(2-Amino-2-oxoethyl)-1-(5-(4-cyclopropylpyridin-2-yl)pyrimidin-2-yl)-N-methyl-3-(methylsulfinyl)-1H-indole-6-carboxamide], the inhibition at 10 µM was determined as 87%.

For `CN(CC(N)=O)C(=O)c1ccc2c([S+](C)[O-])cn(-c3ncc(-c4cc(C(C)(C)O)ccc4F)cn3)c2c1` (single isomer, unassigned) [Example 334, N-(2-Amino-2-oxoethyl)-1-(5-(2-fluoro-5-(2-hydroxypropan-2-yl)phenyl)pyrimidin-2-yl)-N-methyl-3-(methylsulfinyl)-1H-indole-6-carboxamide], the inhibition at 10 µM came out at 99%.

Turning to `CN(CC(N)=O)C(=O)c1ccc2c([S+](C)[O-])cn(-c3ncc(-c4cc(C5CC5)ccc4F)cn3)c2c1` (single isomer, unassigned) [Example 335, N-(2-Amino-2-oxoethyl)-1-(5-(5-cyclopropyl-2-fluorophenyl)pyrimidin-2-yl)-N-methyl-3-(methylsulfinyl)-1H-indole-6-carboxamide], the inhibition at 10 µM turned out to be 100%.

For the molecule `CC(O)c1ccc(F)c(-c2cnc(-n3cc(S(C)(=O)=O)c4ccc(C(=O)N5CCOCC5)cc43)nc2)c1` (single isomer, unassigned) [Example 344, (1-(5-(2-Fluoro-5-(1-hydroxyethyl)phenyl)pyrimidin-2-yl)-3-(methylsulfonyl)-1H-indol-6-yl)(morpholino)methanone], the inhibition at 10 µM was 96%.
